System: sites of inflammation
Assay: In vivo imaging of collagen-induced arthritis (CIA) mice, qualitative analysis of targeting
Parameters: species or system Balb/c mice
Settings: inflamed paw
Method: Inflammation was modeled by inducing polyarticular collagen-induced arthritis (CIA) in 4-6 week old female Balb/c mice (Charles River). Antibody mediated CIA was induced by intravenous (IV; tail vein) injection of 2 mg Arthrogen-CIA Monoclonal Antibody Blend (Chemicon). Three days after antibody treatment, each mouse received 50 μg Lipopolysaccharide (LPS; Chemicon) intraperitoneally (IP). Seven days after the initial injection, the mice had recovered from the LPS toxicity and symptoms of arthritis were observed. Mice were monitored daily and scored for paw and joint swelling based on the following scale: • 0: Normal • 1: Mild but definite swelling of ankle or wrist or swelling limited to individual digits • 2: Moderate redness and swelling of ankle and wrist • 3: Severe redness and swelling of the entire paw including digits (none of the study mice reached this stage)
Mice were injected with the present contrast agent when they reached level 2, between five and ten days after the LPS injection.
Contrast agents were introduced systemically by IV injection. A 29-guage needle was used to inject 100 μl of 1% solids in water (without buffer salts or saline) containing 2% Pluronic F-127 via the lateral tail vein. The tail was stroked lengthwise three times with an alcohol saturated pad to dilate the blood vessels prior to injection. […]

Substance: BSA conjugate: BSA conjugate used as comparison contrast agent; labeled the whole paw
- image resolution of labeling: labeled the whole paw
